Measurements published in ChEMBL document CHEMBL4342498, “Design and Discovery of an Orally Efficacious Spiroindolinone-Based Tankyrase Inhibitor for the Treatment of Colon Cancer” (J Med Chem, 2020).
Values after ≈ are worked out from the molar mass of the structure shown. Active and inactive are the calls of the source. No cut-off for these calls is given here.

Key:
COLO 320DM [1] = assay: Antiproliferative activity against human COLO320DM cells assessed as inhibition of cell growth measured after 4 days by CellTiter-Glo assay; format: functional; conditions: 96 h
[2] = Permeability of the compound measured after 4 hrs by PAMPA; format: ADME; conditions: read-out: permeability
[3] = Stability in mouse liver microsomes assessed as parent compound remaining at 1 uM measured after 60 mins in presence of NADPH by LC-MS/MS analysis; format: ADME, Microsome; conditions: read-out: Stability
[4] = Stability in rat liver microsomes assessed as parent compound remaining at 1 uM measured after 30 mins in presence of NADPH by LC-MS/MS analysis; format: ADME, Microsome; conditions: read-out: Stability
[5] = Stability in rat liver microsomes assessed as parent compound remaining at 1 uM measured after 60 mins in presence of NADPH by LC-MS/MS analysis; format: ADME, Microsome; conditions: read-out: Stability
[6] = Stability in human liver microsomes assessed as parent compound remaining at 1 uM measured after 60 mins in presence of NADPH by LC-MS/MS analysis; format: ADME, Microsome; conditions: read-out: Stability
[7] = Protein binding in human plasma assessed as unbound fraction at 1 uM measured after 24 hrs by LC-MS/MS analysis; format: ADME, cell-free
[8] = Protein binding in mouse plasma assessed as unbound fraction at 1 uM measured after 24 hrs by LC-MS/MS analysis; format: ADME, cell-free
[9] = biological target: Poly [ADP-ribose] polymerase 1 (Homo sapiens, UniProt P09874); assay: Inhibition of recombinant human PARP1 expressed in Escherichia coli assessed as reduction in auto-PARylation using histone as substrate measured after 45 mins in presence of biotinylated-NAD+ by ELISA
COLO 320DM [10] = assay: Antiproliferative activity against human COLO320DM cells assessed inhibition of cell growth measured after 5 days by MTT assay; format: functional; conditions: 120 h
RKO = assay: Antiproliferative activity against human RKO cells assessed inhibition of cell growth measured after 5 days by MTT assay; format: functional; conditions: 120 h
[11] = biological target: T1, Tankyrase 1/2 (Homo sapiens) (UniProt Q9H2K2+O95271); assay: Inhibition of TNKS/TNKS2-mediated WNT/beta-catenin signaling pathway in human COLO320DM cells assessed as upregulation of AXIN2 expression at 0.1 uM measured after 16 hrs by Western blot analysis relative to control; format: cell-based
[12] = Dose normalized initial plasma concentration in Sprague-Dawley rat at 1 mg/kg, iv; format: ADME, organism-based; conditions: in vivo
[13] = Dose normalized AUC (infinity) in Sprague-Dawley rat at 1 mg/kg, iv; format: ADME, organism-based; conditions: in vivo
COLO 320DM [14] = assay: Antitumor activity against human COLO320DM cells xenografted in Prkdc-NOD-SCID CB17 mouse assessed as tumor growth inhibition at 150 mg/kg, ip administered twice daily for 5 days followed by 2 days interval for 2 cycles relative to control; format: functional; conditions: read-out: TGI
COLO 320DM [15] = assay: Antitumor activity against human COLO320DM cells xenografted in Prkdc-NOD-SCID CB17 mouse assessed as tumor growth inhibition at 300 mg/kg, po administered twice daily for 5 days followed by 2 days interval for 2 cycles relative to control; format: functional; conditions: read-out: TGI
Tankyrase 1/2 [16] = biological target: T2, Tankyrase 1/2 (Homo sapiens, UniProt Q9H2K2+O95271); conditions: hek293
T2 sequence (Q9H2K2 whole entry): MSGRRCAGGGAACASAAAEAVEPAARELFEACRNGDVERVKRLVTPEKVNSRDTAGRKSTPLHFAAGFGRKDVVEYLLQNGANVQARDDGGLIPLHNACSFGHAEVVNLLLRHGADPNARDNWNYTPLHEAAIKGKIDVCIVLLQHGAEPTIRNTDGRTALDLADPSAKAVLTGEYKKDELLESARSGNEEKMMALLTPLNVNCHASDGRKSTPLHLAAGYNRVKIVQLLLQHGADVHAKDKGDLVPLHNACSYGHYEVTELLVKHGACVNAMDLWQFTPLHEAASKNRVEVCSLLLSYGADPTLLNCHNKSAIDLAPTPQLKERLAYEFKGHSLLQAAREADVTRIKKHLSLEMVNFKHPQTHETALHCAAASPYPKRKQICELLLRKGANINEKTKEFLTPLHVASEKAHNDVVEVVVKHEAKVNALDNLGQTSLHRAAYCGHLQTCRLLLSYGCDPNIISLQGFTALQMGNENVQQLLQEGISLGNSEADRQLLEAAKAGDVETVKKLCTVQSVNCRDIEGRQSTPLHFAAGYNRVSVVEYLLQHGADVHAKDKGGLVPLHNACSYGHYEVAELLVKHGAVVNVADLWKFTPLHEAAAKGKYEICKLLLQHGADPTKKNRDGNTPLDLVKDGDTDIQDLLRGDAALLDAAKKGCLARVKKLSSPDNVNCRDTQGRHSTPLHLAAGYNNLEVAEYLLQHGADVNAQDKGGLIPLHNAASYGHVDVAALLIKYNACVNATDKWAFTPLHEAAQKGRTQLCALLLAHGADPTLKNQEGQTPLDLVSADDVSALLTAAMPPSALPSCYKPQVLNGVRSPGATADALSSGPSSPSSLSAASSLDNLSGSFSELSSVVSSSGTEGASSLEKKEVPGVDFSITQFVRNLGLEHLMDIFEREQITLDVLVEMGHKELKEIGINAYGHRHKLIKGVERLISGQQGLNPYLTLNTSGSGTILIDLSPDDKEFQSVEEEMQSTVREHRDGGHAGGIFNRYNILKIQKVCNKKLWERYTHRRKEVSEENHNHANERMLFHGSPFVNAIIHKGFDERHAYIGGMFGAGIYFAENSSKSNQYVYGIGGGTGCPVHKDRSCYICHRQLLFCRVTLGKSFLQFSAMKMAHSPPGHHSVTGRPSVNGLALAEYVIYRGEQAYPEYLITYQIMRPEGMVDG
T2 sequence (O95271 whole entry): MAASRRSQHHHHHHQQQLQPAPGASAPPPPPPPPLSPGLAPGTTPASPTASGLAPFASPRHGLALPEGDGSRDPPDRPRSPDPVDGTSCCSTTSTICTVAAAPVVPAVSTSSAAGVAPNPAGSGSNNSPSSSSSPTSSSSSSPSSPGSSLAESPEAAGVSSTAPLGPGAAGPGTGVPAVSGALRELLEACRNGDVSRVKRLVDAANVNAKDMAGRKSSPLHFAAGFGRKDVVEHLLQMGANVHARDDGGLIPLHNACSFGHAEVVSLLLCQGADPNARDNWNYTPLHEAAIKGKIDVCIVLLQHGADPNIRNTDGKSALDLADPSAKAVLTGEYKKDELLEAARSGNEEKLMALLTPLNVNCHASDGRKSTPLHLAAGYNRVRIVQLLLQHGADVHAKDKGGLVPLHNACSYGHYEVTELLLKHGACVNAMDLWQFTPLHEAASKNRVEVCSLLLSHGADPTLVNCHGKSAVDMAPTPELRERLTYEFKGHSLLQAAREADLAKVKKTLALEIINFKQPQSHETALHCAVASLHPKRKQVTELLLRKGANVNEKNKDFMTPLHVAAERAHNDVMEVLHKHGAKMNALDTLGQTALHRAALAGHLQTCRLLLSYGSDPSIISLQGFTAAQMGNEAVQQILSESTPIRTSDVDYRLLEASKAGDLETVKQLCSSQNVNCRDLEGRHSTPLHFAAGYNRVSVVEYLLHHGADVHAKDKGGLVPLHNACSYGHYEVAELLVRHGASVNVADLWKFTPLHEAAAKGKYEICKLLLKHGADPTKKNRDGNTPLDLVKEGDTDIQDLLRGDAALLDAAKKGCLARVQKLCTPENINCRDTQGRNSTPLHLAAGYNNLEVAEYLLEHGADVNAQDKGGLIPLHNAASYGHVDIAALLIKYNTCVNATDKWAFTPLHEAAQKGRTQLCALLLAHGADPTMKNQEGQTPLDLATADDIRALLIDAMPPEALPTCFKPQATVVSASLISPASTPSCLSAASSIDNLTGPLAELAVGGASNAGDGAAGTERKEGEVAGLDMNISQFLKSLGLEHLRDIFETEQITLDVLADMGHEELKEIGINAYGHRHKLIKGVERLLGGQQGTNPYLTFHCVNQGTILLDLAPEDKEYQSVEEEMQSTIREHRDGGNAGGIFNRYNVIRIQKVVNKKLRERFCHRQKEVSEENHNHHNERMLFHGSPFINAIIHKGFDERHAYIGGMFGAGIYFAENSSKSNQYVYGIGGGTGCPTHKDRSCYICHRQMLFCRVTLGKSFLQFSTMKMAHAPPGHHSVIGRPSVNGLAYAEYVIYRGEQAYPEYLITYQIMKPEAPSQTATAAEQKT
Description: Inhibition of TNKS/TNKS2 (unknown origin) expressed in HEK293 cells assessed as reduction in Wnt-signaling measured after 24 hrs by TCF-luciferase reporter gene assay

Tankyrase 1/2 [17] = biological target: T2, Tankyrase 1/2
Description: Inhibition of TNKS/TNKS2 (unknown origin) expressed in human DLD1 cells assessed as reduction in Wnt-signaling measured after 24 hrs by TCF-luciferase reporter gene assay

[18] = biological target: T3, Poly [ADP-ribose] polymerase tankyrase-2 (Homo sapiens, UniProt Q9H2K2); assay: Inhibition of recombinant human N-terminal TEV cleavage site-fused/FLAG-poly his-tagged TNKS2 ARC5-SAM-PARP domain (613 to 1166 residues) expressed in Escherichia coli assessed as reduction in auto-PARylation preincubated for 10 mins followed by biotinylated-NAD+ addition and measured after 45 mins by ELISA
T3 sequence (Q9H2K2 whole entry): T2 sequence (Q9H2K2 whole entry)

MDR1 = assay: Efflux ratio of permeability across basolateral to apical side over apical to basolateral side in MDCK2-MDR1 cells; format: ADME, cell-based, Canis lupus familiaris; conditions: dog, MDCK-MDR1
[19] = Efflux ratio of permeability across basolateral to apical side over apical to basolateral side in MDCK2 cells; format: ADME, cell-based, Canis lupus familiaris, MDCK-II; conditions: dog, mdck
[20] = Net efflux ratio of permeability across basolateral to apical side over apical to basolateral side in MDCK2-MDR1 cells to MDCK2 cells; format: ADME, cell-based, Canis lupus familiaris; conditions: dog, mdck
[21] = biological target: T1, Tankyrase 1/2 (Homo sapiens); assay: Inhibition of TNKS/TNKS2-mediated WNT/beta-catenin signaling pathway in human COLO320DM cells assessed as upregulation of AXIN2 expression at 0.33 uM measured after 16 hrs by Western blot analysis; format: cell-based
[22] = biological target: T1, Tankyrase 1/2 (Homo sapiens); assay: Inhibition of TNKS/TNKS2-mediated WNT/beta-catenin signaling pathway in human COLO320DM cells assessed as reduction in beta-catenin expression at 0.33 uM measured after 16 hrs by Western blot analysis; format: cell-based
[23] = biological target: T4, Poly [ADP-ribose] polymerase tankyrase-1 (Homo sapiens, UniProt O95271)
T4 sequence (O95271 whole entry): T2 sequence (O95271 whole entry)
Description: Inhibition of recombinant human N-terminal TEV cleavage site-fused/FLAG-poly his-tagged TNKS SAM-PARP domain (1024 to 1327 residues) expressed in Escherichia coli assessed as reduction in auto-PARylation preincubated for 10 mins followed by biotinylated-NAD+ addition and measured after 45 mins by ELISA

physchem = conditions: phosphate buffered saline, pH 7.4
[24] = Stability in mouse liver microsomes assessed as parent compound remaining at 1 uM measured after 30 mins in presence of NADPH by LC-MS/MS analysis; format: ADME, Microsome; conditions: read-out: Stability
[25] = Stability in human liver microsomes assessed as parent compound remaining at 1 uM measured after 30 mins in presence of NADPH by LC-MS/MS analysis; format: ADME, Microsome; conditions: read-out: Stability

Sequence of Poly [ADP-ribose] polymerase 1 (P09874 whole entry): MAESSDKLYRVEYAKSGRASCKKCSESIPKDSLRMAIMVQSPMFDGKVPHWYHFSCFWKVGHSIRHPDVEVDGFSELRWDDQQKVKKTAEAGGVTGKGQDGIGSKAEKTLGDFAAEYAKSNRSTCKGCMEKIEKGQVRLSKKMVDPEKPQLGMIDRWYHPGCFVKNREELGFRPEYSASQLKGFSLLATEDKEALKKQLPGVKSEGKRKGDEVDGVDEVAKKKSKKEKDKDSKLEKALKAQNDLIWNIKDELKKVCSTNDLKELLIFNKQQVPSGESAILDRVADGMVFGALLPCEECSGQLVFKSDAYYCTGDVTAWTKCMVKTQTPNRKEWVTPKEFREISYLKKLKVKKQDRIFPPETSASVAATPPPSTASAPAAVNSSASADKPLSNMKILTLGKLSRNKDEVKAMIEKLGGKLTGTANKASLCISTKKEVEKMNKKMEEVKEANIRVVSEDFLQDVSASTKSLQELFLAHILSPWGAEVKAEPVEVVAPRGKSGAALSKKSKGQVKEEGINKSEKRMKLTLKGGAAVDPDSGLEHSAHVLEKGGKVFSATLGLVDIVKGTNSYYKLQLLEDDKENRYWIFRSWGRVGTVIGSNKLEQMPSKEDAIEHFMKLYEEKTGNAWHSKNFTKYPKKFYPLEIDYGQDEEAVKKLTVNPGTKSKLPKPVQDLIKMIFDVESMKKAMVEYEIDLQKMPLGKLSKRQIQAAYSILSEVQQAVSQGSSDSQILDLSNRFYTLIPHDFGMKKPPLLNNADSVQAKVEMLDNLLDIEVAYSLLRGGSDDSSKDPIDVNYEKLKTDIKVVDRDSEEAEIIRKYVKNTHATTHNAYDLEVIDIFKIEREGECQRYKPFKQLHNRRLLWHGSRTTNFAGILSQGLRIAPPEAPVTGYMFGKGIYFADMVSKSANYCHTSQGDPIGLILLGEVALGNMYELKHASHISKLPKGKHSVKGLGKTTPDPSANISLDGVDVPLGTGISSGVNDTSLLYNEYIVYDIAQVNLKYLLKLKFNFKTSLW

SMILES | GI50 (COLO 320DM [1]) | Papp at 4 h [2] | remaining at 1 h, 1 µM [3] | remaining at 0.5 h, 1 µM [4] | remaining at 1 h, 1 µM [5] | remaining at 1 h, 1 µM [6] | fraction unbound at 24 h, 1 µM [7] | fraction unbound at 24 h, 1 µM [8] | GI50 (COLO 320DM [10]) | GI50 (RKO) | C0/dose [12] | AUC/dose [13] | IC50 (Tankyrase 1/2 [16]) | IC50 (Tankyrase 1/2 [17]) | IC50 [18] | efflux ratio (MDR1) | efflux ratio [19] | Ratio [20] | IC50 [23] | solubility at 1 h, 200 µM (physchem) | other results
O=c1[nH]c(N2CCC3(CC2)CN(CCO)c2cc(F)cc(F)c23)nc2c1CCCC2 | 1630 nM | 2 ×10⁻⁶ cm/s | 3.2 to 18.3% | 12.8% | 3.2% | 2.2 to 5.9% | 0.004 to 0.015 | 0.004 to 0.015 | 450 nM | > 10000 nM | 9.84 µM | 4.42 µmol·h/L | 12.1 nM | 77.6 nM | – | – | – | – | – | – | IC50 [9]: > 100000 nM; fold change (FC) [11]: 4.42; inhibition in vivo at 150 mg/kg (COLO 320DM [14]): 47.2%; inhibition in vivo at 300 mg/kg (COLO 320DM [15]): 51.9%
CN1CCCc2c1nc(N1CCC3(CC1)C(=O)N(C)c1cc(OCC(=O)O)cc(F)c13)[nH]c2=O | 300 nM | – | 93.3% | – | – | 97.6% | – | – | – | – | – | – | 507 nM | 1877 nM | 9.9 nM | 0.3 | 0.3 | 1 | 4.2 nM | 98.4 µg/mL (≈ 209 µM) | inhibition [21]: inactive; inhibition [22]: inactive
CS(=O)(=O)c1ccc(-c2nnc(/C=C/c3nnc(-c4ccc(C#N)cc4)o3)n2-c2ccccc2Cl)nc1 | 1500 nM | – | 95.8% | – | – | 100% | 0.028 | 0.035 | 430 nM | 8900 nM | 1.54 µM | 0.79 µmol·h/L | – | – | – | – | – | – | – | – | –
CN1CCCc2c1nc(N1CCC3(CC1)C(=O)N(CCO)c1cc(F)cc(F)c13)[nH]c2=O | 250 nM | 3 ×10⁻⁶ cm/s | 2 to 8.5% | 2% | 0.5% | 6.3% | 0.022 | 0.083 | – | – | – | – | 1.1 nM | 3.9 nM | 13.5 nM | 24.6 | 6.4 | 3.8 | 7.5 nM | 82.9 µg/mL (≈ 186 µM) | remaining at 0.5 h, 1 µM [24]: 21.2%; remaining at 0.5 h, 1 µM [25]: 21%
